Assay results as given in US8293734B2, “Nitroimidazooxazine and nitroimidazooxazole analogues and their uses” (priority 2009, dated 2012).
Values after ≈ are worked out from the molar mass of the structure shown.

Legend:
[1] = test system: Trypanosoma cruzi amastigotes (Tulahuen C2C4 strain); experiment: Trypanosoma cruzi assay in infected L-6 cells; assay type: cell-based; settings: L6, 96 h incubation, read-out: IC50 T. cruzi
Experimental: (§1) (c) Antiprotozoal screening. Compounds were evaluated for their activities against both Trypanosoma cruzi amastigotes and Leishmania donovani amastigotes (free or encapsulated in macrophages), according to the following protocols:
(i) Trypanosoma cruzi assay. L-6 cells (2×10^3) in medium (100 μL of RPMI 1640 supplemented with 2 mM L-glutamine plus 10% heat inactivated fetal calf serum) were seeded in 96-well microtitre plates (Costar™) and incubated at 37° C. (5% CO2) for 1d. A suspension (50 μL) of Trypanosoma cruzi trypomastigotes (5×10^3 of Tulahuen C2C4 strain, containing the β-galactosidase gene) was added, and the cells were incubated at 37° C. (5% CO2) for a further 48 h to establish the infection. The medium was removed and replaced by fresh medium and the infected cells were then incubated at 37° C. (5% CO2) for 96 h in either medium alone or in the presence of serial (3-fold) dilutions of test compounds (initially prepared as 10 mg/mL stock solutions in DMSO and diluted into medium). Benznidazole was employed as a standard in each assay. Following incubation, chlorophenol red glycoside (100 mM) in 0.1% Nonidet P40/PBS (50 μL) was added, and (after 6 h) the absorbance at 540 nm was measured and used to calculate the IC50 values.

[2] = test system: L. donovani amastigotes (MHOM-ET-67/L82) in mouse macrophages; experiment: Leishmania donovani infected macrophage assay; assay type: cell-based; settings: 96 h incubation, read-out: IC50 L. donovani macro
Experimental: as §1
(iii) Leishmania donovani infected macrophage assay. Freshly harvested mouse macrophages in medium (RPMI 1640 plus 10% heat inactivated fetal calf serum) were incubated at 37° C. (5% CO2) for 24 h and then infected (1:3 macrophages to amastigotes) with an axenic L. donovani amastigote culture (MHOM-ET-67/L82) in medium (SM, pH 5.4 plus 10% heat inactivated fetal calf serum). The infected macrophages were seeded at a density of 1.2×10^6/mL (by diluting in RPMI+10% FCS) in 16-well slides (Lab-tek™) and incubated at 37° C. (5% CO2) for 24 h. The medium was removed and replaced by fresh medium (RPMI 1640+10% FCS), and this was repeated following mixing. The infected macrophages were then incubated at 37° C. (5% CO2) for 96 h in either medium alone or in the presence of serial (3-fold) dilutions of test compounds (initially prepared as 10 mg/mL stock solutions in DMSO and diluted into medium). Miltefosin was employed as a standard in each assay. […], the slides were fixed (5 min in 100% MeOH) and stained (10% Giemsa, 10 min). The ratio of infected to uninfected macrophages was determined by microscopic examination, and the IC50 values were then calculated by linear regression analysis.

[3] = test system: M. tuberculosis bacteria in the non-replicating state; experiment: LORA low-oxygen-recovery assay, MIC (anaerobic); assay type: cell-based; settings: Mycobacterium tuberculosis, 264 h; 11 day luminescence-based low-oxygen-recovery assay
[4] = test system: Axenically grown L. donovani amastigotes (MHOM-ET-67/L82); experiment: Axenic Leishmania donovani assay; assay type: cell-based; settings: 70 h incubation, read-out: IC50 L. donovani axen
Experimental: as §1
(ii) Axenic Leishmania donovani assay. Axenically grown L. donovani amastigotes (MHOM-ET-67/L82) from a healthy culture in log phase were seeded at a density of 1×10^6/mL medium (SM, pH 5.4 plus 10% heat inactivated fetal calf serum) in 96-well microtitre plates (Costar™) and incubated at 37° C. (5% CO2) for 70 h in either medium alone or in the presence of serial (3-fold) dilutions of test compounds (initially prepared as 10 mg/mL stock solutions in DMSO and diluted into medium). Miltefosin was employed as a standard in each assay. After incubation, Resazurin fluorescent dye was added to each well, and incubation was continued for an additional 2 h. The IC50 values were determined from measurements of the fluorescence data.

[5] = test system: replicating Mycobacterium tuberculosis; experiment: MABA microplate Alamar blue assay, MIC (aerobic); assay type: cell-based; settings: 192 h
[6] = test system: M. tuberculosis Erdman; experiment: In vivo mouse acute TB infection assay; design: species or system BALB/c mice; settings: for In vivo efficacy vs PA-824: 100 mg/kg orally daily 5 days a week for 3 weeks, ratio of average lung CFU reduction to that of PA-824
[7] = test system: VERO cells (CCL-81); experiment: Mammalian cell cytotoxicity assay (tetrazolium dye); assay type: cell-based; settings: Chlorocebus sabaeus, 72 h exposure, read-out: IC50 VERO
Experimental: (b) Mammalian cell cytotoxicity assay. This was assessed against VERO cells (CCL-81, American Type Culture Collection) in a 72 h exposure, using a tetrazolium dye assay (Falzari et al., 2005).

[8] = Stability to human liver microsomes; assay type: in vitro ADME; settings: 1 μM compound, 60 min, 37° C., 0.5 mg/mL protein
Experimental: (a) Stability of the compounds to human and mouse microsomes. Test compounds (1 μM) were incubated at 37° C. with pooled human or CD-1 mouse liver microsome preparations (0.5 mg/mL final protein concentration) and an NADPH regenerating system (MgCl2, 3.3 mM; G6P, 3.3 mM; G6PD, 0.4 U/mL; NADP+, 1.3 mM) in phosphate buffer (75 mM, pH 7.4), with a final volume of 200 μL. The compounds were dissolved in DMSO such that the final DMSO concentration was 0.5%. Reactions were stopped at 0 and 60 min by the addition of MeCN (100 μL) containing 0.2 μM metoprolol as an internal standard. Samples were diluted 10× and centrifuged prior to analysis by LC-MS/MS using electrospray ionization and SRM monitoring using a gradient LC method. LC peak areas were integrated and expressed as analyte/IS peak area ratios (PAR), and a mean value for each time point was calculated from the duplicates. The percent remaining value was calculated as: % remaining=100×(Mean PART60/Mean PART0).

SMILES | melting point | IC50 [1] | IC50 [2] | MIC [3] | IC50 [4] | MIC [5] | In vivo efficacy vs PA-824 [6] | IC50 [7] | log reductions in CFU ([6]; lungs, vs vehicle alone-treated mice, day 31, 'up to') | Microsomes (% remaining) Human [8]
O=[N+]([O-])c1cn2c(n1)OC(COCc1cccc(OC(F)(F)F)c1)CC2 (centres unmarked) [Compound 47, 2-nitro-7-({[3-(trifluoromethoxy)benzyl]oxy}methyl)-6,7-dihydro-5H-imidazo[2,1-b][1,3]oxazine] | 100 to 112 °C | 1.1 µg/mL (≈ 2.95 µM) | 0.084 µg/mL (≈ 0.225 µM) | 15 µM (≈ 5.6 µg/mL) | 0.041 µg/mL (≈ 0.11 µM) | 3.8 µM (≈ 1.42 µg/mL) | – | – | – | –
CC1(COCc2ccc(OC(F)(F)F)cc2)Cn2cc([N+](=O)[O-])nc2O1 (centres unmarked) [Compound 25, 2-methyl-6-nitro-2-({[4-(trifluoromethoxy)benzyl]oxy}methyl)-2,3-dihydroimidazo[2,1-b][1,3]oxazole] | 110 to 111 °C | 0.24 µg/mL (≈ 0.643 µM) | 0.22 µg/mL (≈ 0.589 µM) | – | 0.029 µg/mL (≈ 0.0777 µM) | – | 0.025 | > 128 µM | – | –
O=[N+]([O-])c1cn2c(n1)OCC(COCc1cccc(-c3ccc(OC(F)(F)F)cc3)c1)C2 (centres unmarked) [Compound 74, 2-nitro-6-({[4′-(trifluoromethoxy)[1,1′-biphenyl]-3-yl]methoxy}methyl)-6,7-dihydro-5H-imidazo[2,1-b][1,3]oxazine] | 78 to 80 °C | 0.94 µg/mL (≈ 2.09 µM) | 0.54 µg/mL (≈ 1.2 µM) | 2.9 µM (≈ 1.3 µg/mL) | 0.16 µg/mL (≈ 0.356 µM) | 0.22 µM (≈ 0.0989 µg/mL) | – | > 128 µM | – | –
CC1(COc2ccc(-c3ccc(OC(F)(F)F)cc3)cc2)Cn2cc([N+](=O)[O-])nc2O1 (centres unmarked) [Compound 12, 2-methyl-6-nitro-2-({[4′-(trifluoromethoxy)[1,1′-biphenyl]-4-yl]oxy}methyl)-2,3-dihydroimidazo[2,1-b][1,3]oxazole] | 209 to 211 °C | 9.4 µg/mL (≈ 21.6 µM) | 0.74 µg/mL (≈ 1.7 µM) | – | 0.016 µg/mL (≈ 0.0368 µM) | – | 112 | > 128 µM | – | –
CC1(COCc2ccc(OCc3ccccc3)cc2)Cn2cc([N+](=O)[O-])nc2O1 (centres unmarked) [Compound 26, 2-({[4-(benzyloxy)benzyl]oxy}methyl)-2-methyl-6-nitro-2,3-dihydroimidazo[2,1-b][1,3]oxazole] | 130 to 131 °C | 0.34 µg/mL (≈ 0.86 µM) | 0.36 µg/mL (≈ 0.91 µM) | 50 µM (≈ 19.8 µg/mL) | 0.013 µg/mL (≈ 0.0329 µM) | 0.3 µM (≈ 0.119 µg/mL) | – | > 128 µM | – | –
CC1(COc2ccc(OCc3ccccc3)cc2)Cn2cc([N+](=O)[O-])nc2O1 (centres unmarked) [Compound 7, 2-{[4-(benzyloxy)phenoxy]methyl}-2-methyl-6-nitro-2,3-dihydroimidazo[2,1-b][1,3]oxazole] | 162 to 165 °C | 3.2 µg/mL (≈ 8.39 µM) | 0.4 µg/mL (≈ 1.05 µM) | 24 µM (≈ 9.15 µg/mL) | 0.016 µg/mL (≈ 0.042 µM) | 0.53 µM (≈ 0.202 µg/mL) | – | – | – | –
O=[N+]([O-])c1cn2c(n1)OC[C@@H](OCc1ccc(OC(F)(F)F)cc1)C2 [PA-824, reference compound] | – | – | – | – | – | – | 1.00 | – | 2.5-3 log | 82%
